# In patent publication US11400058B2, “Intravenous formulations of coenzyme Q10 (CoQ10) and methods of use thereof” (Berg LLC, priority 2010, dated 2022):
# Marks after values point to notes of the source that are not given here.
# Experiment: 4-week repeat-dose study in dogs with 2-week recovery (Study 20000334);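 further: endpoints monitored covered cageside and clinical observations, body weight, gross pathology, clinical pathology, histopathology and organ weights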
# Settings: for Died or Sacrificed Moribund: animals of 5
# [1] = 31.25 mg/kg F, end of dosing, animals of 3
# [2] = 31.25 mg/kg F, end of recovery, animals of 2
# [3] = 31.25 mg/kg M, end of dosing, animals of 3
# [4] = 31.25 mg/kg M, end of recovery, animals of 2
# [5] = 62.5 mg/kg F, end of dosing, animals of 3
# [6] = 62.5 mg/kg F, end of recovery, animals of 2
# [7] = 62.5 mg/kg M, end of dosing, animals of 3
# [8] = 62.5 mg/kg M, end of recovery, animals of 2
# [9] = 125 mg/kg F, end of dosing, animals of 3
# [10] = 125 mg/kg F, end of recovery, animals of 2
# [11] = 125 mg/kg M, end of dosing, animals of 3
# [12] = 125 mg/kg M, end of recovery, animals of 2
compound,measurement,setting,value
"COC1=C(OC)C(=O)C(C/C=C(\C)CC/C=C(\C)CC/C=C(\C)CC/C=C(\C)CC/C=C(\C)CC/C=C(\C)CC/C=C(\C)CC/C=C(\C)CC/C=C(\C)CCC=C(C)C)=C(C)C1=O [CoQ10, Coenzyme Q10]",Died or Sacrificed Moribund,31.25 mg/kg F,0
same,"Body Weight, percent difference from controls","31.25 mg/kg F, end of dosing",+4.7%
same,Reticulocytes,"31.25 mg/kg F, end of dosing",3.67e+10 L⁻¹
same,Gross Pathology: Pale Liver,[1],0
same,Liver Glycogen Accum.,[1],2
same,"Liver Glycogen Accum., Mild",[1],0
same,"Liver Glycogen Accum., Minimal",[1],2
same,"Body Weight, percent difference from controls","31.25 mg/kg F, end of recovery",+10.9%
same,Reticulocytes,"31.25 mg/kg F, end of recovery",63.4 109/L
same,Gross Pathology: Pale Liver,[2],0
same,Liver Glycogen Accum.,[2],0
same,"Liver Glycogen Accum., Mild",[2],0
same,"Liver Glycogen Accum., Moderate",[2],0
same,Died or Sacrificed Moribund,31.25 mg/kg M,0
same,"Body Weight, percent difference from controls","31.25 mg/kg M, end of dosing",+3.3%
same,Reticulocytes,"31.25 mg/kg M, end of dosing",4.87e+10 L⁻¹
same,Gross Pathology: Pale Liver,[3],0
same,Liver Glycogen Accum.,[3],3
same,"Liver Glycogen Accum., Mild",[3],1
same,"Liver Glycogen Accum., Minimal",[3],2
same,"Body Weight, percent difference from controls","31.25 mg/kg M, end of recovery",+4.7%
same,Reticulocytes,"31.25 mg/kg M, end of recovery",71.6 109/L
same,Gross Pathology: Pale Liver,[4],0
same,Liver Glycogen Accum.,[4],0
same,"Liver Glycogen Accum., Mild",[4],0
same,"Liver Glycogen Accum., Moderate",[4],0
same,Died or Sacrificed Moribund,62.5 mg/kg F,0
same,"Body Weight, percent difference from controls","62.5 mg/kg F, end of dosing",+4.2%
same,Reticulocytes,"62.5 mg/kg F, end of dosing",5.2e+10 L⁻¹
same,Gross Pathology: Pale Liver,[5],3
same,Liver Glycogen Accum.,[5],3
same,"Liver Glycogen Accum., Mild",[5],1
same,"Liver Glycogen Accum., Minimal",[5],2
same,"Body Weight, percent difference from controls","62.5 mg/kg F, end of recovery",+5.1%
same,Reticulocytes,"62.5 mg/kg F, end of recovery",50.8 109/L
same,Gross Pathology: Pale Liver,[6],1
same,Liver Glycogen Accum.,[6],1
same,"Liver Glycogen Accum., Mild",[6],0
same,"Liver Glycogen Accum., Moderate",[6],1
same,Died or Sacrificed Moribund,62.5 mg/kg M,0
same,"Body Weight, percent difference from controls","62.5 mg/kg M, end of dosing",0.0%
same,Reticulocytes,"62.5 mg/kg M, end of dosing",6.8e+10 L⁻¹
same,Gross Pathology: Pale Liver,[7],3
same,Liver Glycogen Accum.,[7],3
same,"Liver Glycogen Accum., Mild",[7],3
same,"Liver Glycogen Accum., Minimal",[7],0
same,"Body Weight, percent difference from controls","62.5 mg/kg M, end of recovery",−1.4%
same,Reticulocytes,"62.5 mg/kg M, end of recovery",85.4 109/L
same,Gross Pathology: Pale Liver,[8],1
same,Liver Glycogen Accum.,[8],1
same,"Liver Glycogen Accum., Mild",[8],1
same,"Liver Glycogen Accum., Moderate",[8],0
same,Died or Sacrificed Moribund,"125 mg/kg F, moribund sacrificed on Day 36 (Week 2 of recovery)",1^c
same,"Body Weight, percent difference from controls","125 mg/kg F, end of dosing",−1.0%
same,Reticulocytes,"125 mg/kg F, end of dosing",160.69 109/L
same,Gross Pathology: Pale Liver,[9],3
same,Liver Glycogen Accum.,[9],3
same,"Liver Glycogen Accum., Mild",[9],1
same,"Liver Glycogen Accum., Minimal",[9],2
same,"Body Weight, percent difference from controls","125 mg/kg F, end of recovery",−1.0%
same,Reticulocytes,"125 mg/kg F, end of recovery",53.6 109/L
same,Gross Pathology: Pale Liver,[10],2
same,Liver Glycogen Accum.,[10],2
same,"Liver Glycogen Accum., Mild",[10],1
same,"Liver Glycogen Accum., Moderate",[10],1
same,Died or Sacrificed Moribund,125 mg/kg M,0
same,"Body Weight, percent difference from controls","125 mg/kg M, end of dosing",+1.2%
same,Reticulocytes,"125 mg/kg M, end of dosing",190.6 109/L
same,Gross Pathology: Pale Liver,[11],3
same,Liver Glycogen Accum.,[11],3
same,"Liver Glycogen Accum., Mild",[11],3
same,"Liver Glycogen Accum., Minimal",[11],0
same,"Body Weight, percent difference from controls","125 mg/kg M, end of recovery",+7.9%
same,Reticulocytes,"125 mg/kg M, end of recovery",131.1 109/L
same,Gross Pathology: Pale Liver,[12],2
same,Liver Glycogen Accum.,[12],2
same,"Liver Glycogen Accum., Mild",[12],1
same,"Liver Glycogen Accum., Moderate",[12],1
